Here are results for 2 molecules from US20100184770A1, “COMPOUNDS” (Glaxo Group Limited, priority 2006, published 2010).

For experiment [1], the target named is T1, human H1 receptor (Homo sapiens, UniProt P35367).
T1 construct: expressed in transfected cells
The experiment can be described thus: Histamine H1 functional antagonist assay: determination of antagonist duration (washout, FLIPR). It is filed as cell-based. The settings on record: at one or more time points after washout. As for the experimental part: (§1) 1. Generation of Histamine H1 Cell Line The human H1 receptor is cloned using known procedures described in the literature [Biochem. Biophys. Res. Commun., 201(2):894 (1994)]. Chinese hamster ovary (CHO) cells stably expressing the human H1 receptor are generated according to known procedures described in the literature [Br. J. Pharmacol., 117(6):1071 (1996)].
To determine the antagonist duration, cells are cultured overnight in non-coated black-walled clear bottom 96-well tissue culture plates, are washed with PBS and are incubated with a concentration of antagonist chosen to give an approximate DR in the range 30-300. Following the 30 min antagonist incubation period, the cells are washed two or three times with 200 μl of PBS and then 100 μl Tyrodes buffer is added to each well to initiate antagonist dissociation. Following incubation for predetermined times, typically 30-270 min at 37° C., the cells are then washed again with 200 μl PBS and are incubated with 100 Tyrodes buffer containing Brilliant Black, probenecid and Fluo-4 for 45 min at 37° C., as described above. After this period, the cells are challenged with histamine in the FLIPR™ as described above. The dose ratio at each time point is used to determine the fractional H1 receptor occupancy by the following equation: fractional receptor occupancy=(DR-1)/DR. The decrease in receptor occupancy over time approximates to a straight line and is analysed by linear regression. The slope of this straight line fit is used as an index of the dissociation rate of the antagonist. The dose ratios for antagonist treated cells and for antagonist treated and washed cells at each time point are used to calculate a relative dose ratio (rel DR) which is also used as an index of antagonist duration. Antagonists with long duration of action produce rel DR values close to 1, and antagonists with short duration of action produce rel DR values that approaches the dose ratio value obtained for antagonist treatment alone.

Experiment [2] has as its target T1, human H1 receptor. The experiment can be described thus: Histamine H1 functional antagonist assay: determination of antagonist pA2 (FLIPR). It is filed as cell-based. As for the experimental part:
as §1
The histamine H1 receptor expressing CHO cells are seeded into non-coated black-walled clear bottom 96-well tissue culture plates as described above. […]
The plates are then placed into a FLIPR™ (Molecular Devices, UK) to monitor cell fluorescence (λex=488 nm, λEM=540 nm) in the manner described in Sullivan et al., (In: Lambert D G (ed.), Calcium Signaling Protocols, New Jersey: Humana Press, 1999, 125-136) before and after the addition of 50 μl histamine over a concentration range of 1 mM 0.1 nM. […] The antagonist pA2 is calculated using the following standard equation: pA2=log(DR-1)−log [B] where DR=dose ratio, defined as EC50 antagonist-treated/EC50 control and [B]=concentration of antagonist.

T1 sequence (P35367 whole entry): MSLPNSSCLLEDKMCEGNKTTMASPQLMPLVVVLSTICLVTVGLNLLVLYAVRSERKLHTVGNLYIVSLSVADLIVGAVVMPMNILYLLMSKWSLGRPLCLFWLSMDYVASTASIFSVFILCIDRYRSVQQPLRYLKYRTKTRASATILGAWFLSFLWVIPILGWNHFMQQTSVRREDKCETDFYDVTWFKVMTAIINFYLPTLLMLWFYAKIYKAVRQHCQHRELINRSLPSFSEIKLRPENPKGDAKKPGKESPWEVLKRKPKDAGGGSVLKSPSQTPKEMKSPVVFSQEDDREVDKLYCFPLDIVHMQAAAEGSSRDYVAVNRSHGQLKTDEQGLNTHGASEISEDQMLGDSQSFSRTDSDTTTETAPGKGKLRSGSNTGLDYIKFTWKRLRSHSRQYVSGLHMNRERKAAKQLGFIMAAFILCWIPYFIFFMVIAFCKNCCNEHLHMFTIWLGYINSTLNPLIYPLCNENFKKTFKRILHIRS

Take `COCCC(=O)NCCN1CCC[C@@H]1Cn1nc(Cc2ccc(Cl)cc2)c2ccccc2c1=O.O=CO` [Example 35, N-[2-((2R)-2-{[4-[(4-Chlorophenyl)methyl]-1-oxo-2(1H)-phthalazinyl]methyl}-1-pyrrolidinyl)ethyl]-3-(methyloxy)propanamide, formate salt]: the “duration of action compared with azelastine in the histamine H1 functional antagonist assay” value on human H1 receptor [1] was “longer duration of action than azelastine”. In addition, the Kb at human H1 receptor [2] is less than 10 nM.
Consider `Cl.O=C(CC(F)(F)F)NCCN1CCC[C@@H]1Cn1nc(Cc2ccc(Cl)cc2)c2ccccc2c1=O` [Example 36a, N-[2-((2R)-2-{[4-[(4-Chlorophenyl)methyl]-1-oxo-2(1H)-phthalazinyl]methyl}-1-pyrrolidinyl)ethyl]-3,3,3-trifluoropropanamide, hydrochloride], for which the “duration of action compared with azelastine in the histamine H1 functional antagonist assay” value at human H1 receptor [1] is reported as “longer duration of action than azelastine”. Besides, at human H1 receptor [2], the Kb is less than 10 nM.
